The source of these data is PubChem BioAssay AID179 (DTP/NCI, 2004).

Calls of active or inactive are those of the source.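 Rule for the calls: active = compounds giving half or more protection of infected cells from virus-caused growth loss, again on retest; inactive = the rest.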 Where only a bound is given, the exact number is not on record here.

In this assay the test system is CEM cells HIV-1 protection, formazan growth assay. The assay is described as follows: NCI AIDS Antiviral Assay. The following applies: for IC50: measured here: growth of uninfected CEM cells. The procedure, abridged:
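Human CEM cells, uninfected and HIV-1-infected, exposed to five drug concentrations; growth measured by soluble formazan assay and scored as percent protection from infection, with protecting compounds retested.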

As to `CC1c2c(cc(=O)[nH]c2O)C(=O)N1Cc1ccccc1` (configuration not stated), the EC50 is greater than 347 µM and the IC50 worked out at 302 µM. For `CCOC(=O)c1c(/C=N\Nc2ccccc2)nc2ccccc2c1-c1ccccc1`, the EC50 is greater than 64.6 µM and the half-inhibitory concentration (IC50) is 26.3 µM.

Consider `c1ccc(N=C2SC(c3ccccc3)(c3ccccc3)c3ccccc32)cc1`, for which the EC50 is greater than 200 µM and the IC50 is greater than 200 µM. `Cc1ccc2nc(C=Nc3ccc(Cl)cc3)cc(C)c2c1`: the result was inactive. As to `CCn1cc(C(=O)O)c(=O)c2cc3c(cc21)S(=O)(=O)CC3`, the EC50 was greater than 200 µM and the IC50 is greater than 200 µM. Turning to `CN(C)CC(=O)N1CCc2c([nH]c3ccccc23)C1c1cccnc1` (configuration not stated), the EC50 was greater than 107 µM and the IC50 is greater than 107 µM. For the molecule `O=c1[nH]c(=O)n(COCc2ccccc2)c2ccc(Br)cc12`, the EC50 was greater than 200 µM and the IC50 is greater than 200 µM. For the molecule `Cc1ccc(Nc2sc(C)cc2C#N)c([N+](=O)[O-])c1`, the EC50 was greater than 200 µM and the IC50 is 178 µM. The matching figures for `O=C(CCCN1CCc2[nH]c3ccccc3c2C1)c1ccc(F)cc1`: greater than 200 µM and 33.9 µM. On the same counts, the results for `COC(=O)CC(NC(=O)OCc1ccccc1)C(C(=O)OCc1ccccc1)C1(C)OCCO1` (configuration not stated) are greater than 50.1 µM and 34.7 µM.

Turning to `N#Cc1nc(C#N)n(C(=O)c2ccccc2)c1NC(=O)c1ccccc1`, the EC50 is greater than 200 µM and the IC50 is greater than 200 µM. For the molecule `CCCC/C=C\CCCCCCCCCC1=C(O)C(=O)C=C(OC)C1=O`, the EC50 was greater than 55 µM and the IC50 was found to be 9.33 µM. Take `O=C1NCC2(CCNCC2)N1c1ccccc1`: the EC50 is greater than 200 µM and the IC50 is greater than 200 µM. As to `CCCCOC(=O)C1CN2C=CC=NC2=NC1(C(F)(F)F)C(F)(F)F` (configuration not stated), the outcome was inactive. As for `C=CCn1c2c(sc1=S)C(S)N=CN2` (configuration not stated), the EC50 is greater than 107 µM and the half-maximal inhibitory concentration (IC50) turned out to be 42.7 µM.

In the case of `CC1CN=C(NS(=O)(=O)c2cc(C(=O)Nc3ccc(F)cc3)c(Cl)cc2S)NN1` (configuration not stated), the EC50 is greater than 200 µM and the 50% inhibitory concentration (IC50) was determined as 24 µM. The matching figures for `O=C1C=C2CC3=CC(=O)C=C(CC4=CC(=O)C=C(CC5=CC(=O)C=C(CC(=C1)C2=O)C5=O)C4=O)C3=O`: greater than 53.7 µM and 0.912 µM. The matching figures for `CCC[N+](C)(C)CCCNC(=O)c1c(O)c2ccccc2[nH]c1=O`: 178 µM and 182 µM. Consider `CN1C=Nc2c(ncn2C2CCC(CO)O2)C1O` (configuration not stated), for which the EC50 is greater than 200 µM and the IC50 was greater than 200 µM. For the molecule `CCC(CCCCC1CC[C@H]2CC(=O)C[C@@H]12)OC` (some centres not stated), the EC50 was greater than 200 µM and the IC50 turned out to be 107 µM. With `O=c1ssc(Cl)c1Cl`, the EC50 is greater than 200 µM and the IC50 is 33.9 µM.

On to `COc1cc(C(Cc2ccccc2)NC(C)=O)oc(=O)c1` (configuration not stated), for which the EC50 is greater than 871 µM and the IC50 came out at 155 µM.

On to `COc1ccc(C2c3cc4c(cc3OC(N3CCOCC3)C2C)OCO4)c(OC)c1OC` (configuration not stated), for which the EC50 was greater than 200 µM and the IC50 was found to be 9.55 µM.

For the molecule `COc1ccc(O)c2c(=O)ccccc12`, the outcome was inactive.

With `O=C1NC(=O)/C(=C/c2ccc(S(=O)(=O)N/N=C/c3ccccc3)cc2)N1`, the EC50 was greater than 200 µM and the IC50 is greater than 200 µM.

Take `O=C(O)CCCCSCCCCCCSCCCCC(=O)O`: the EC50 was greater than 141 µM and the IC50 was greater than 141 µM. On to `C=C(Br)CN(C#N)CC(=C)Br`, for which the EC50 is greater than 200 µM and the IC50 is greater than 200 µM. `O=c1c2ccccc2nc(-c2ccccc2)n1-c1nccs1`: the EC50 was greater than 200 µM and the IC50 turned out to be 22.4 µM. Turning to `CC(CCC=C(c1cc(Cl)c(O)c(C(=O)O)c1)c1cc(Cl)c(O)c(C(=O)O)c1)C1CCC2C3CC[C@@H]4CCCC[C@]4(C)C3CC[C@]12C` (some centres not stated), the concentration giving a half-maximal response (EC50) was greater than 7.24 µM and the IC50 is greater than 7.24 µM.

With `CCOc1cccc(C=Nc2ccccc2SSc2ccccc2N=Cc2cccc(OCC)c2O)c1O`, the EC50 is greater than 100 µM and the IC50 stood at 5.13 µM. The matching figures for `COc1cccc(NC(=O)CC(=O)N2N=C(C)C(N=Nc3ccc(C(=O)O)cc3)C2=O)c1` (configuration not stated): greater than 200 µM and 63.1 µM. The matching figures for `Cc1ccc(NC(=O)CSc2nnc(Cc3ccccc3)o2)cc1`: greater than 55 µM and greater than 55 µM. As for `Cc1nn(-c2ccccc2)c(CC(Cc2c([N+](=O)[O-])c(C)nn2-c2ccccc2)c2ccccc2)c1[N+](=O)[O-]`, the EC50 was greater than 10 µM and the IC50 was greater than 10 µM.

For the molecule `CC1(C)C2CCC1(CS(=O)(=O)O)C(=O)C2` (configuration not stated), the EC50 was greater than 200 µM and the IC50 is greater than 200 µM. On to `CC1(C)/C=C/CC2(C)Oc3ccccc3C[C@@H]2CCC2(C)Oc3ccccc3C[C@@H]2C1` (some centres not stated), for which the EC50 was greater than 12 µM and the half-inhibitory concentration (IC50) was greater than 12 µM. On to `O=C(CSc1nnc(CSc2ccc(Cl)cc2)n1-c1ccccc1)NC(=O)Nc1ccccc1`, for which the EC50 is greater than 182 µM and the 50% inhibitory concentration (IC50) turned out to be 115 µM. Take `O=C(CCCC(=O)N/N=C/c1ccc(O)c(O)c1)N/N=C\c1ccc(O)c(O)c1`: the EC50 was greater than 200 µM and the concentration for half-maximal inhibition (IC50) came to 29.5 µM.

In the case of `C=CCNC(=O)N(CCCC(NC(C)=O)C(=O)NCc1ccccc1)Cc1ccccc1` (configuration not stated), the EC50 is greater than 575 µM and the IC50 is greater than 575 µM.

As to `CC(=O)NC(C(=O)O)(C(=O)O)C(C)CC(=O)O` (configuration not stated), the EC50 was greater than 200 µM and the IC50 was greater than 200 µM. Regarding `O=C1CCC2(CCC(=O)NC2=O)C(=O)N1`, the EC50 is greater than 1200 µM and the IC50 is greater than 1200 µM. In the case of `COc1ccccc1/C=C/C(=O)N1CCC2(CC1)C(=O)N(C)CN2c1ccccc1`, the EC50 is greater than 200 µM and the IC50 is 51.3 µM. Consider `O=C(O)c1nn(-c2ccccn2)c(O)c1N=Nc1ccc(/C=C/c2ccc(N=Nc3c(C(=O)O)nn(-c4ccccn4)c3O)cc2S(=O)(=O)O)c(S(=O)(=O)O)c1`, for which the EC50 was greater than 20.4 µM and the IC50 is greater than 20.4 µM. With `CC(C)(C)c1cc(Oc2ccc(C#N)c(C#N)c2)cc(C(C)(C)C)c1`, the EC50 was greater than 40.7 µM and the IC50 is greater than 40.7 µM. In the case of `CCN(CCCl)CCCCCNc1c2ccccc2nc2ccc(OC)cc12`, the result was inactive. As for `CCCCN(CCCC)CCNc1ccc(Cl)c2oc3cc(C)ccc3c(=O)c12`, the EC50 is greater than 21.9 µM and the IC50 was greater than 21.9 µM. In the case of `O=C(O)OC12CCCCCC1C(=O)C1CCCCC12` (configuration not stated), the EC50 was greater than 200 µM and the IC50 is greater than 200 µM. As for `O=C(O)c1ccc2c(c1)S(=O)(=O)NC2=O`, the EC50 was greater than 1100 µM and the IC50 was greater than 1100 µM. Turning to `Cc1c(Cc2ccccc2)n(C(C)OCCN2C(=O)c3ccccc3C2=O)c(=O)[nH]c1=O` (configuration not stated), the EC50 was greater than 200 µM and the IC50 was greater than 200 µM.

For the molecule `CN(C)CC1CCCC/C1=N\OC(=O)c1ccccc1` (configuration not stated), the outcome was inactive. With `CC(=O)[C@H]1[C@H](O)C[C@@]2(C)[C@@H]3CCc4cc(O)c(OC5OC(CO)C(O)C(O)C5O)cc4C3(C)C(=O)C[C@]12C` (some centres not stated), the EC50 is greater than 200 µM and the 50% inhibitory concentration (IC50) was greater than 200 µM. For `Cc1cc(-c2ccc(N=Nc3c(S(=O)(=O)O)cc4cc(S(=O)(=O)O)cc(N)c4c3O)c(C)c2)ccc1N=Nc1cc(S(=O)(=O)O)c2ccccc2c1O`, the result was inactive. Still for that read-out and setting: the entry for `COc1ccc2c(c1)[n+]([O-])c(-c1ccc([N+](=O)[O-])cc1)c(N)[n+]2[O-]` is “inactive”; for `N#Cc1c([N+](=O)[O-])cc(C(F)(F)F)cc1[N+](=O)[O-]` it is “inactive”. As for `Oc1ccc(-c2cc(-c3cc(-c4ccc(O)cc4)no3)on2)cc1`, the EC50 was greater than 200 µM and the IC50 turned out to be 6.31 µM. In the case of `O=C1c2ccccc2C(=O)N1N1C(=O)c2ccccc2C1=O`, the EC50 was greater than 200 µM and the IC50 was greater than 200 µM. Consider `CN(CN(C)/N=C/c1ccc(Cl)cc1)/N=C/c1ccc(Cl)cc1`, for which the result was inactive.

On to `COC1/C=C/OC2(C)Oc3c(C)c(O)c4c(O)c(c(/C=N/N(C)C5OC(COC(=O)c6ccccc6)C(OC(=O)c6ccccc6)C5OC(=O)c5ccccc5)c(O)c4c3C2=O)NC(=O)C(C)=C/C=C/C(C)C(O)C(C)C(O)C(C)C(OC(C)=O)C1C` (configuration not stated), for which the EC50 is greater than 200 µM and the IC50 came to 10 µM. On the same counts, the results for `CNc1ccc2[nH]c(=O)ccc2c1[N+](=O)[O-]` are greater than 12 µM and greater than 12 µM.

Consider `c1cc2c(cc1[C@@H]1OC[C@@H]3[C@H]1CO[C@H]3c1ccc3c(c1)OCO3)OCO2`, for which the EC50 is greater than 200 µM and the IC50 turned out to be 79.4 µM. In the case of `CC12CCC(C(Br)C1=O)C2(C)CS(=O)(=O)O` (configuration not stated), the EC50 is greater than 200 µM and the IC50 was greater than 200 µM. `CCCCCCCCCCCC(=O)OCCOCCOCCOCCOCCOCc1ccc(OC)cc1`: the outcome was inactive. In the case of `CN1C=c2c3c(ccc2=C2C=CC4C=C5OCOC5=CC4=C21)OCO3` (configuration not stated), the EC50 was greater than 20 µM and the IC50 stood at 0.759 µM. On the same counts, the results for `COC(=O)C(NC(=O)C12CCC(C)(C(=O)O1)C2(C)C)c1cc(C(C)(C)C)c(O)c(C(C)(C)C)c1` (configuration not stated) are greater than 20 µM and greater than 20 µM. Regarding `O=[N+]([O-])c1ccccc1C=NC12CC3CC(CC(C3)C1)C2`, the EC50 was greater than 115 µM and the IC50 is greater than 115 µM. For the molecule `CC(=C/c1ccccc1)/C=C1/NC(=S)NC1=O`, the EC50 is greater than 200 µM and the IC50 is greater than 200 µM.

`COC1=CC(=O)C2C=C3C(CO)=CCC(O)C3(C)CC2C1=O` (configuration not stated): the EC50 is greater than 200 µM and the concentration for half-maximal inhibition (IC50) is 3.8 µM. On the same counts, the results for `O=[N+]([O-])c1cccc(-c2cn3c(n2)Cc2ccccc2C3)c1` are greater than 200 µM and 33.9 µM. On the same counts, the results for `CCC1(c2ccccc2)Oc2ccccc2-n2cccc2C1=O` (configuration not stated) are 1.78 µM and 5.01 µM.

For the molecule `Cc1ccc(/C=N/Nc2cnccn2)s1`, the EC50 is greater than 200 µM and the concentration for half-maximal inhibition (IC50) was greater than 200 µM. For the molecule `CCOC(=O)c1cc(-c2ccc3ccccc3n2)c(O)c2cc3ccccc3nc12`, the EC50 is greater than 200 µM and the 50% inhibitory concentration (IC50) is greater than 200 µM. With `Cc1cnc2c(c1)C(=O)N(c1ccc(Oc3ccccc3)cc1)S2(=O)=O`, the EC50 was greater than 200 µM and the concentration for half-maximal inhibition (IC50) was greater than 200 µM.

Usually EC50 stands for the concentration needed to bring the measured effect to its halfway point. Usually IC50 stands for the midpoint of a concentration-inhibition curve.
